Test results from ChEMBL document CHEMBL5226367, “Synthesis, Optical Properties, and Antiproliferative Evaluation of NBD-Triterpene Fluorescent Probes” (J Nat Prod, 2023).
Calls of active or inactive are those of the source. The calls are words filed in the database; no cut-off is given here.

Key:
[1] = tested on: B16-F10; assay: Potency index, ratio of maslinic acid IC50 to test compound IC50 for cytotoxicity against mouse B16-F10 cells assessed as reduction in cell viability incubated for 72 hrs by MTT assay; assay type: functional
[2] = tested on: HT-29; assay: Potency index, ratio of oleanolic acid IC50 to test compound IC50 for cytotoxicity against human HT-29 cells assessed as reduction in cell viability incubated for 72 hrs by MTT assay; assay type: functional
[3] = tested on: B16-F10; assay: Induction of apoptosis in mouse B16-F10 cells assessed as total apoptotic cells at IC50 concentration incubated for 72 hrs by Annexin V-FITC/PI staining based flow cytometric analysis relative to control; assay type: functional
[4] = tested on: B16-F10; assay: Potency index, ratio of oleanolic acid IC50 to test compound IC50 for cytotoxicity against mouse B16-F10 cells assessed as reduction in cell viability incubated for 72 hrs by MTT assay; assay type: functional
[5] = Drug localization in cytoplasm of human HT-29 cells assessed as green fluorescence at IC50 concentration incubated for 30 min to 24 hrs by DAPI staining based confocal microscopic analysis; assay type: ADME, subcellular; conditions: time 30-1440 min
[6] = tested on: HT-29; assay: Induction of apoptosis in human HT-29 cells assessed as total apoptotic cells at IC50 concentration incubated for 72 hrs by Annexin V-FITC/PI staining based flow cytometric analysis relative to control; assay type: functional
[7] = tested on: HT-29; assay: Cytotoxicity against human HT-29 cells assessed as decrease in cell density at IC50 concentration; assay type: functional, cell-based; conditions: time 30-1440 min, TDE = time-dependent effect
[8] = tested on: HepG2; assay: Potency index, ratio of oleanolic acid IC50 to test compound IC50 for cytotoxicity against human HepG2 cells assessed as reduction in cell viability incubated for 72 hrs by MTT assay; assay type: functional
[9] = tested on: HepG2; assay: Induction of apoptosis in human HepG2 cells at IC50 concentration incubated for 24 hrs by Annexin V-FITC/PI staining based flow cytometric analysis; assay type: functional, cell-based
[10] = Drug localization in cytoplasm of human HepG2 cells assessed as green fluorescence at IC50 concentration incubated for 30 min to 24 hrs by DAPI staining based confocal microscopic analysis; assay type: ADME, subcellular; conditions: time 30-1440 min
[11] = Drug localization in cytoplasm of mouse B16-F10 cells assessed as green fluorescence at IC50 concentration incubated for 30 min to 24 hrs by DAPI staining based confocal microscopic analysis; assay type: ADME, subcellular; conditions: time 30-1440 min
[12] = tested on: B16-F10; assay: Induction of apoptosis in mouse B16-F10 cells at IC50 concentration incubated for 24 hrs by Annexin V-FITC/PI staining based flow cytometric analysis; assay type: functional, cell-based
[13] = tested on: HepG2; assay: Cytotoxicity against human HepG2 cells assessed as decrease in cell density at IC50 concentration; assay type: functional, cell-based; conditions: time 30-1440 min, TDE = time-dependent effect
[14] = tested on: HT-29; assay: Potency index, ratio of maslinic acid IC50 to test compound IC50 for cytotoxicity against human HT-29 cells assessed as reduction in cell viability incubated for 72 hrs by MTT assay; assay type: functional
[15] = tested on: HT-29; assay: Induction of apoptosis in human HT-29 cells at IC50 concentration incubated for 24 hrs by Annexin V-FITC/PI staining based flow cytometric analysis; assay type: functional, cell-based
[16] = tested on: B16-F10; assay: Cytotoxicity against mouse B16-F10 cells assessed as decrease in cell density at IC50 concentration; assay type: functional, cell-based; conditions: time 30-1440 min, TDE = time-dependent effect
[17] = tested on: HepG2; assay: Induction of apoptosis in human HepG2 cells assessed as total apoptotic cells at IC50 concentration incubated for 72 hrs by Annexin V-FITC/PI staining based flow cytometric analysis relative to control; assay type: functional
[18] = tested on: HepG2; assay: Potency index, ratio of maslinic acid IC50 to test compound IC50 for cytotoxicity against human HepG2 cells assessed as reduction in cell viability incubated for 72 hrs by MTT assay; assay type: functional

Structure (SMILES) | Ratio IC50 [1] | Ratio IC50 [2] | Activity [3] [%] | Ratio IC50 [4] | Drug uptake [5] | Activity [6] [%] | Activity [7] | Ratio IC50 [8] | Activity [9] | Drug uptake [10] | Drug uptake [11] | Activity [12] | Activity [13] | Ratio IC50 [14] | Activity [15] | Activity [16] | Activity [17] [%] | Ratio IC50 [18]
CC1(C)CC[C@]2(C(=O)O)CC[C@]3(C)C(=CC[C@@H]4[C@@]5(C)CC[C@H](OC(=O)CCCCCNc6ccc([N+](=O)[O-])c7nonc67)C(C)(C)[C@@H]5CC[C@]43C)[C@@H]2C1 | 15 | 22 | 31 | 44 | Active | 31 | Tde | 17 | Active | Active | Active | Active | Tde | 1.7 | Active | Tde | 31 | 7.9
CC1(C)CC[C@]2(C(=O)O)CC[C@]3(C)C(=CC[C@@H]4[C@@]5(C)C[C@@H](OC(=O)CCCCCNc6ccc([N+](=O)[O-])c7nonc67)[C@H](O)C(C)(C)[C@@H]5CC[C@]43C)[C@@H]2C1 | 7.4 | 65 |  | 22 | Active |  | Tde | 15 | Active | Active | Active | Active | Tde | 5 | Active | Tde |  | 7.1
